As a reminder, the IC50 is the concentration needed to halve the response being measured.

This note sets out measurements from ChEMBL document CHEMBL1765041, “An unprecedented neolignan skeleton from Chimarrhis turbinata” (J Nat Prod, 2011).

In this assay the test system is Radical scavenging activity. In words: Antioxidant activity assessed as DPPH free radical scavenging activity after 30 mins in dark by spectrophotometry. The class given is functional. (In general: Loss of DPPH colour is used to gauge radical scavenging.)

For `Cc1cc(C(C)(C)C)c(O)c(C(C)(C)C)c1` [BUTYLATED HYDROXYTOLUENE], the IC50 was 62.5 µM.
`O=C(O[C@H]1[C@H]([C@@]2(c3ccc(O)c(O)c3)CC[C@H](Cc3ccc(O)c(O)c3)C(=O)O2)OC[C@@H]1O)c1cc(O)cc(O)c1` [CHIMARRHININ]: the concentration for half-maximal inhibition (IC50) was found to be 7.5 µM.
With `COC(=O)C1(O)C[C@@H](O)[C@@H](O)[C@H](OC(=O)/C=C\c2ccc(O)c(O)c2)C1` (stereo not given in full), the 50% inhibitory concentration (IC50) turned out to be 18.5 µM.
With `COC(=O)C1(O)C[C@@H](O)[C@@H](O)[C@H](OC(=O)/C=C/c2ccc(O)c(O)c2)C1` (stereo not given in full), the IC50 was determined as 18.6 µM.
As for `O=C(/C=C/c1ccc(O)c(O)c1)O[C@@H]1C[C@](O)(C(=O)O)C[C@@H](O)[C@H]1O` [CHLOROGENIC ACID], the IC50 was found to be 20 µM.
